# Results from US11464791B2, “Use of paricalcitol in the treatment of inflammatory anaemia” (priority 2014, dated 2022).
# Where two headings read alike, the source gives them in different places.
# Columns and labels:
# [1] = Study B: cross-sectional comparison of paricalcitol and calcitriol (ESA dose, Hb, PTHi, ferrokinetics); assay type: in vivo, human; details: for ESA doses required: Epoetin beta; for PTHi: median (p25-p75)
# Protocol: A cross-sectional study designed to assess the differences between calcitriol and paricalcitol associated with the use of ESAs, both used in the treatment of secondary hyperparathyroidism. A total of 92 patients from the Chronic Dialysis Unit of the Hospital Universitario Son Espases (HUSE) in Palma de Mallorca and from the Chronic Haemodialysis Unit of the Policlínica Miramar were included. A total of 31 patients were treated with calcitriol and a total of 61 patients were treated with paricalcitol. The ESA analysed was Epoetin beta (Neorecormon).
# In order to determine whether treatment with calcitriol is capable of giving rise to the same results obtained in the treatment with paricalcitol, the groups of patients included in Study B were analysed (Table 2), one of the groups treated with paricalcitol (n=61) and the other group treated with calcitriol (n=31).
# Erythropoietin = experiment: Study A: plasma erythropoietin levels (ELISA); assay type: in vivo, human
# Protocol: Analytical determinations: all the blood samples were analysed in the central laboratory of the HUSE, applying the methodology regularly used in clinical practice: • Hb: Haemoglobin was determined on a monthly basis prior to the dialysis session and corresponding weekday. The analysis of the samples was performed using flow cytometry (CELL-DYN Sapphire®—Abbott) at the central laboratory of the HUSE. • Klotho: Human Soluble α-Klotho Assay Kit—IBL. ELISA (Enzyme-LinkedImmunoSorbentAssay) sandwich type using two types of high-specificity anti-Human Klotho antibodies (67G3 and 91F1). Using TeTraMeltilBenzidina (TMB) as a chromogeneous agent. • Hepcidin: DGR HepcidinProhormone ELISA kit. ELISA (Enzyme-LinkedImmunoSorbentAssay) of competitive type with anti-Pro-Hepcidin (polyclonal) antibodies. • IL-6: Quantikine ELISA Human IL-6 immunoassay. ELISA (Enzyme-LinkedImmunoSorbentAssay) sandwich type using specific antibodies for mouse monoclonal and polyclonal IL-6. • Erythropoietin: Quantikine IVD ELISA Human Erythropoietin Immunoassay. […]
# The non-conventional inflammatory parameters were determined in months 3 and 6 of the study, due to the fact that it is considered that the first three months of the study were dedicated to ESA dose titration and the last three months to the maintenance phase, as mentioned previously. […]
# [2] = system: transferrin saturation index (TSI); experiment: Study A: evolution of the transferrin saturation index (TSI); assay type: in vivo, human; details: for average TSI: subgroup with IV Fe (n=25)
# Protocol: (§1) A controlled prospective study in which the evolution of ESA doses, Fe supplement doses, evolution of Fe, of transferrin, of ferritin, of the transferrin saturation index, of the haemoglobin levels and of the non-conventional markers associated with inflammatory anaemia was determined: Hepcidin and IL-6 and analysis of the hormones associated with a improved erythropoietic response. The variability of the haemoglobin was also assessed. A total of 31 patients were included in this study. The ESAs used by the patients were Epoetin beta (Neorecormon) and CERA.
# (§2) This study is a controlled, observational and analytical prospective-type study of cases and controls. The study lasted six months. In the first three months the ESA dose titrations were obtained and, in the remaining three months corresponded to the maintenance phase. The data shown in the present invention form part of the MIR-EPO Study (EudraCT: 2009-015511-40) https://www.clinicaltrialsregister.eu. The design of the MIR-EPO Study assessed patients being treated with an erythropietic agent (Epoetin-beta-Neorecormon or CERA). In said patients, the differences between the groups with and without paricalcitol were analysed, due to which the results shown in the present invention related specifically to the following groups: • Group of patients being treated with paricalcitol (paricalcitol+ESA), i.e. combined treatment, and • Group of patients being treated exclusively with an ESA.
# The administration of iron supplements shall always be intravenous with the aim of maintaining a transferrin saturation index (TSI %) greater than 20%.
# PTH = details: oral paricalcitol, cited from earlier work
# [3] = paricalcitol >10 μg/dialysis, haemodialysis patients; cited from earlier work
# [4] = Study A (MIR-EPO): ESA dose requirements; assay type: in vivo, human
# Protocol: as §1
# as §2, with “The data shown in the present invention form part of the MIR-EPO Study (EudraCT: 2009-015511-40) https://www.clinicaltrialsregister.eu.” left out, “ESA. […]” for “ESA.”
# plasma iron (Fe^2+) = experiment: Study A: evolution of iron (Fe^2+) levels; assay type: in vivo, human; details: for Fe^2+ levels: subgroup with IV Fe supplements (n=25)
# Protocol: as §1, §2
# [5] = Study C: cross-sectional study of paricalcitol dose versus ESA dose and Hb levels; assay type: in vivo, human; details: paricalcitol 5-10 μg/week
# Source text: A cross-sectional study designed to assess the distribution of the dose of paricalcitol (μg/week) associated with a greater erythropoietic response. That is, the aim is to assess the predictive capacity of the doses of paricalcitol (μg/week) over the doses of ESA (UI/week), in addition to assessing the doses of paricalcitol to predict Hb levels (g/dl) and identify the doses of paricalcitol associated with certain Hb levels in a range between 10 and 12 g/dl, which are the levels considered to be optimum.
# A total of 58 patients were included in this study. The ESA analysed was Epoetin beta (Neorecormon).
# In order to determine the most adequate doses required to obtain the best Hb levels and reduce the need for ESAs, a regression analysis was performed between the Hb levels, the doses of ESAs and the dose of paricalcitol in the group of patients of Study C (FIG. 2). As can be observed in said FIG. 2, the doses comprised between 5 and 10 μg were associated to a reduced need for ESAs. This trend was modified on increasing the doses of paricalcitol, due to which, according to this regression model, the administration of doses of paricalcitol higher than 10 μg/week predicts a greater use of ESAs.
smiles,measurement,setting,value
C=C1/C(=C\C=C2/CCC[C@]3(C)[C@@H]([C@H](C)CCCC(C)(C)O)CC[C@@H]23)C[C@@H](O)C[C@@H]1O [calcitriol],Ferritin,[1],168 (111-298) ng/ml
same,Hb levels,[1],11.10 ± 1.16 g/dL
same,TSI %,[1],24 ± 10%
same,ESA doses required,[1],9000 UI/week
same,PTHi,[1],358 (230-623) pg/ml
"C[C@H](/C=C/[C@H](C)C(C)(C)O)[C@H]1CC[C@H]2/C(=C/C=C3C[C@@H](O)C[C@H](O)C3)CCC[C@]12C [paricalcitol, 19-nor-1, 25-(OH) 2-vitamin D2]",plasma erythropoietin levels,Erythropoietin; month 3,8.6 (4.6-16.7) mUI/ml
same,plasma erythropoietin levels,Erythropoietin; month 6,20.2 (7.2-33.6) mUI/ml
same,average TSI,[2]; month 0,25±6%
same,average TSI,[2]; month 3,24±5%
same,average TSI,[2]; month 6,30±19%
same,PTH levels,PTH; after treatment,93 pg/mL
same,PTH levels,PTH; basal level,147 pg/mL
same,reduction of PTH levels with respect to the basal level,PTH,~40%
same,calcium levels,[3],9.8 mg/dL
same,evolution of ESA requirements,[4]; months 0-6,significant decrease
same,lower dose of ESA versus group treated exclusively with ESA,"[4]; subgroup with IV Fe, month 6",24%
same,Iron (Fe^2+) levels,plasma iron (Fe^2+); month 0,68 ± 23 µg/dL
same,Iron (Fe^2+) levels,plasma iron (Fe^2+); month 3,68 ± 28 µg/dL
same,Iron (Fe^2+) levels,plasma iron (Fe^2+); month 6,66 ± 37 µg/dL
same,Fe^2+ levels,plasma iron (Fe^2+); month 0,61 ± 16 µg/dL
same,Fe^2+ levels,plasma iron (Fe^2+); month 3,57 ± 14 µg/dL
same,Fe^2+ levels,plasma iron (Fe^2+); month 6,68 ± 37 µg/dL
same,Ferritin,[1],494 (244-701) ng/ml
same,Hb levels,[1],11.89 ± 0.13 g/dL
same,TSI %,[1],30 ± 10%
same,ESA doses required,[1],approximately 4000 UI/week
same,PTHi,[1],276 (170-449) pg/ml
same,plasma Hb levels predicted by regression,[5],10-12 g/dl
"C=C1CC[C@H](O)C/C1=C/C=C1\CCC[C@]2(C)[C@@H]([C@H](C)CCCC(C)(C)O)CC[C@@H]12 [hidroferol, calcifediol]",effect over TSI,[2]; 6 months,not beneficial
same,TSI levels,[2]; month 0,29±12%
same,TSI levels,[2]; month 3,33±14%
same,TSI levels,[2]; month 6,25±9%
